Measured values reported in publication PMC3435407, “αA-Crystallin–Derived Mini-Chaperone Modulates Stability and Function of Cataract Causing αAG98R-Crystallin” (PLoS ONE, 2012).
Non-standard residues stand in square brackets, D forms with d. No end group written: not given here. *: point of attachment. Biotin = O=C1N[C@H]2[C@H](CS[C@H]2CCCCC(=O)*)N1; Bpa = N[C@@H](Cc1ccc(C(=O)c2ccccc2)cc1)C(=O)O

Columns and labels:
[1] = tested on: α-crystallin; parameters: method as in 2 sources, one per row (each row's own in cited_ref): ref [43] = [43]; PMID 8549682; doi:10.1016/s0014-4835(05)80136-8; 43 Sharma KK , Ortwerth BJ ( 1995 ) Effect of cross-linking on the chaperone-like function of alpha crystallin . Exp Eye Res 61 : 413 – 421 . 8549682 10.1016/s0014-4835(05)80136-8 ||| ref [44] = [44]; PMID 15199188; doi:10.1073/pnas.0403532101; 44 Kantorow M , Hawse JR , Cowell TL , Benhamed S , Pizarro GO , et al ( 2004 ) Methionine sulfoxide reductase A is important for lens cell viability and resistance to oxidative stress . Proc Natl Aca; settings: α-crystallin in water-insoluble fraction of lens proteins; ref [43]; cited from earlier work
[2] = tested on: wild-type α-crystallin; settings: modulator in 10- to 30-fold higher concentrations than α-crystallin; ref [39]–[42]; cited from earlier work
Text: In those studies the modulator was used in 10- to 30-fold higher concentrations than the α-crystallin [39]–[42] and the conformational changes in α-crystallin in the presence of the modulator was considered to be responsible for the activity enhancement.

[3] = target: T1, αAG98R (Homo sapiens, UniProt P02489, G98R); test: Photo-crosslinking, SDS-PAGE and western blot; type: binding; settings: for covalent association with αAG98R subunits: photolyzed, SDS-PAGE and western blot
T1 construct: the full-length human αA-crystallin cDNA cloned into pET-23d (+) vector; made in house; host or cells: E. coli BL21(DE3)pLysS
T1 sequence (P02489 whole entry G98R): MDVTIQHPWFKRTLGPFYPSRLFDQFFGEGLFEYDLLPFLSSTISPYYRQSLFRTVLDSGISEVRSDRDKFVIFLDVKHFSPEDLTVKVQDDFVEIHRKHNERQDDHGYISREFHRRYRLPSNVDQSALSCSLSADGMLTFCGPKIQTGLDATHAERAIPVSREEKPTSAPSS
Method: (§1) Biotinyl-αA-mini-chaperone-Bpa peptide (200 µg) was incubated with 200 µg of αAG98R crystallin in buffer, pH 7.2, at 37°C for 1 hr. Subsequently, the sample was filtered in a Microcon 10 kDa cut of filter (Millipore, Bedford, MA) to remove free peptides. The sample was photolyzed for 30 min, at 4°C, using a UV lamp (365 nm) held at a distance of 7 cm from the sample. The photolyzed sample was desalted using C18 zip tip spin columns (Thermo Fisher Scientific, Rockford, IL), as per the manufacturer's protocol, and the bound protein was eluted in 70% acetonitrile. […] The UV-photolyzed sample was subjected to SDS-PAGE and western blot analysis using antibody against biotin.
Figure 6 SDS-PAGE analysis of αAG98R cross-linked with biotinylated Bpa-mini-αA. Incubation, photolysis and SDS-PAGE (lanes 1–3), western blot (lanes 4 and 5) analysis were performed as described under methods. Lane 1, photolysed αAG98R; lane 2, αAG98R incubated with biotinyl-Bpa mini-αA and photolyzed; lane 3 mol wt markers. […] This band was absent in non-photolyzed samples (data not shown).Lanes 4 and 5 western blot of lanes 1 and 2 respectively. […] The figure is representative of 3 independent experiments.

[4] = target: T1, αAG98R; test: Photo-crosslinking, MALDI-TOF/TOF MS; type: binding; settings: photolyzed; restated in the discussion
Method: as §1
Figure 7 MALDI-TOF MS spectrum of αAG98R photolyzed after incubation with or without biotinyl-Bpa-mini-αA-crystallin. A, αAG98R after photolysis; B, αAG98R photolyzed after incubation with biotinyl-Bpa mini-αA. The αAG98R-Bpa mini-αA complex with m/z 22592 is indicated by an arrow. Mass spectrometric analysis confirms the 1∶1 interaction of mini-chaperone with αAG98R monomer. The figure is representative of 3 independent experiments.

[5] = tested on: alcohol dehydrogenase (ADH); test: ADH aggregation assay, heat-denatured (chaperone-like activity); type: biochemical; settings: peptide alone, 43°C
Method: (§2) Aggregation assay was performed in 1 ml 50 mM phosphate buffer containing 150 mM NaCl and 100 mM EDTA at 43°C. The chaperone activity of Biotin-[…](Bpa)[…] as well as a Pro-substituted mini-chaperone ([…]) was also measured by ADH aggregation assay. The extent of aggregation was estimated by monitoring the light scattering at 360 nm using a Shimadzu UV-VIS spectrophotometer equipped with a temperature-controlled multi-cell transporter.
Similar to our earlier observation, αAG98R suppressed ADH aggregation during the early part of the 2 hr assay but the assay mixture started to scatter light after 60 min (Figure 5A).
Figure 5 Effect of the addition of αA-crystallin–derived mini-chaperone on the chaperone-like activity of αAG98R against ADH aggregation. […] The figures represent the typical data obtained multiple times with WT-αA-crystallin and stabilized αAG98R.

[6] = target: T1, αAG98R; test: Recovery of soluble αAG98R after incubation at 43°C (gel filtration, TSK G5000PWXL); type: biochemical; settings: 75 µg αAG98R
Method: (§3) Samples were injected on to a TSK G5000PWXL (Tosoh Bioscience, Montgomeryville, PA) size-exclusion column equilibrated with 50 mM sodium phosphate buffer containing 150 mM NaCl (pH 7.2). The flow rate was set to 0.75 ml/min. The column was attached to a HPLC system connected with UV and refractive index detectors and coupled to a static multi-angle laser light scattering (DAWN-EOS) and dynamic quasi-elastic light scattering detectors (Wyatt Technology, Santa Barbara, CA). The molar mass (Mw), hydrodynamic radius (Rh) and polydispersity index (PDI) were determined using ASTRA (5.3.2) software developed by Wyatt Technology.
(§4) We know from previous studies thatαA-mini-chaperone suppresses the aggregation and precipitation of denaturing proteins, [29], [30]. […] The samples were centrifuged to remove any precipitate formed during incubation, and the supernatant was analyzed by TSKG5000 PWXL gel filtration column connected to a multi-angle laser light scattering (DAWN-EOS) and dynamic quasi-elastic light scattering detectors. […] The first peak corresponded to the oligomeric form of αAG98R, whereas the second peak represented dissociated subunits of the mutant protein. […] The hydrodynamic radius (Rh) of the stabilized αAG98R increased from 15.3 nm to 16.4 nm, consistent with increase in molar mass.

[7] = target: T1, αAG98R; test: αAG98R recovery with different amounts of mini-chaperone (43°C, 30 min); type: binding; settings: 1∶2 ratio (mol/mol) of αAG98R to mini-αA, 10 µM αAG98R
[8] = tested on: alcohol dehydrogenase (ADH); test: EDTA-induced ADH aggregation assay at 37°C; type: biochemical; settings: 250 µg ADH, 50 µg peptide, representative of two experiments
Method: as §2
The EDTA-induced aggregation of ADH assay was performed at 37°C as described under methods. In each experiment 250 µg of ADH was used. […] The figure is representative of two independent experiments. (TIF) Click here for additional data file.

[9] = target: T1, αAG98R; test: Thermal aggregation monitored by light scattering at 360 nm; type: biochemical; settings: 750 µg αAG98R, 1.7∶1 (mol/mol) ratio, 90 min, representative of 3 experiments
Method: Light scattering was monitored at 360 nm for 90 min using a spectrophotometer. […] Because αAG98R is a structurally perturbed protein [20], [21], we hypothesize that the mini-chaperone interacted with mutant αAG98R and prevented aggregation and light scattering. […] The aggregation and precipitation of αAG98R also occurred at 37°C but at a slower rate. […] Nearly 80% of αAG98R was recovered when the incubation was carried out with 1∶2 ratio (mol/mol) of αAG98R to mini-αA-.
The protein samples (750 µg) were incubated in 1 ml PO4 buffer, pH 7.2 at 43°C and light scattering was continually monitored at 360 nm for 90 min in a spectrophotometer. […] The figure is representative of 3 independent experiments.

[10] = tested on: ADH, citrate synthase, insulin and α-lactalbumin; parameters: method as in PMID 10660525, PMID 11350603, PMID 11563692; settings: ref [26], [29], [30]; cited from earlier work
[11] = tested on: αAG98R / wild-type αA-crystallin; test: Far-UV CD thermal denaturation (218 nm); type: physicochemical, human; settings: 100 µg/400 µl, 10 mM phosphate pH 7.2, listed as αA-crystallin mini-chaperone = αAG98R incubated with it
Method: Circular dichroism (CD) spectropolarimeter, J815 (Jasco, Easton, MD), equipped with a temperature control system, was employed to record CD spectra. Far-UV CD measurements were carried out over the wavelength range of 190 to 250 nm with bandwidth 0.5 nm, scan speed 10 nm/min using 0.1-cm path length cuvettes. Protein samples were prepared in 10 mM sodium phosphate buffer (pH 7.2). Spectra are the average of five scans. Buffer signal was subtracted prior to reporting the data. Thermal denaturation data were collected from 25°C to 45°C, with protein concentration of 100 µg/400 µl. Thermal denaturation experiments were performed with a heating rate of 1°C/min, and CD signals at 218 nm were used to determine transition midpoints. Near-UV CD spectra were recorded using a protein sample of 1.5 mg/ml in the buffer used for far-UV studies.
Proteins, 100 µg, were prepared in 400 µl of10 mM phosphate buffer, pH 7.2, and the sample temperatures were slowly raised from 25 to 48°C in 2°C steps, equilibrated for 5 min at each temperature prior to far-UV CD measurement. Molar ellipticity changes at 218 nm were plotted to determine relative stability of samples. […] The spectra were recorded using a protein sample of 1.5 mg/ml. The profile shown is the average of 5 scans.

[12] = tested on: αAG98R / wild-type αA-crystallin oligomer; test: Multi-angle/quasi-elastic light scattering of αA-crystallin oligomers; type: physicochemical, human; settings: 43°C, wild-type protein
Method: as §3, §4

O[C@@H](CS)[C@@H](O)CS (racemic) [dithiothreitol (DTT), dithiothreitol]
restoration of chaperone activity by DTT [1]: restores some of the lost chaperone activity

Nc1ncnc2c1ncn2[C@@H]1O[C@H](COP(=O)(O)OP(=O)(O)OP(=O)(O)O)[C@@H](O)[C@H]1O [ATP]
modulation of wild-type α-crystallin chaperone activity [2]: Modulation of wild-type α-crystallin chaperone activity

N=C(N)NN [aminoguanidine]
modulation of wild-type α-crystallin chaperone activity [2]: Modulation of wild-type α-crystallin chaperone activity

N=C(N)NCCC[C@H](N)C(=O)O [arginine]
modulation of wild-type α-crystallin chaperone activity [2]: Modulation of wild-type α-crystallin chaperone activity

N[C@@H](CCC(=O)N[C@@H](CS)C(=O)NCC(=O)O)C(=O)O [glutathione]
modulation of wild-type α-crystallin chaperone activity [2]: Modulation of wild-type α-crystallin chaperone activity

Biotin-DFVIFLDVKH[Bpa]SPEDLTVK [biotinyl-Bpa-mini-chaperone] [listing 1 of 2 here]
αAG98R photo-crosslinked (image analysis of stained gel) ([3]; 200 µg peptide + 200 µg αAG98R, pH 7.2, 37°C, 1 hr, photolysis 365 nm 30 min 4°C, representative of 3 experiments): about 10%
covalent association with αAG98R subunits ([3]; representative of 3 experiments): covalent association of αA-mini-chaperone with αAG98R subunits was observed
covalent association with αAG98R subunits ([3]; representative of 3 experiments, listed as biotinyl-Bpa mini-αA): confirms the binding of a mini-chaperone to a subunit of αAG98R
Bpa-peptide incorporated into αAG98R subunit [4]: about 10%

Biotin-DFVIFLDVKH[Bpa]SPEDLTVK [biotinyl-Bpa-mini-chaperone] [listing 2 of 2 here]
binding stoichiometry (SDS-PAGE/western blot) ([3]; photolyzed mixture): one peptide was incorporated into one subunit of αAG98R
chaperone activity of Bpa peptide (heat-denatured ADH) [5]: retained chaperone activity
chaperone activity of Bpa peptide (heat-denatured ADH) ([5]; listed as biotin-DFVIFLDVKH(benzoylphenylalanine)SPEDLTVK): active in suppressing the aggregation of heat-denatured ADH

DFVIFLDVKHFSPEDLTVK [αA-mini-chaperone]
mutant protein recovered in soluble form (percent) ([6]; with or without 10 µg αA-mini-chaperone, 1 hr, listed as αAG98R = absence of mini-chaperone): 79%
recovery of αAG98R [7]: ~80%

DFVPFLDVKHFSPEDLTVK [Pro-substituted mini-chaperone]
effect on monomeric peak / dissociation / precipitation of αAG98R ([6]; gel filtration TSK G5000PWXL): did not prevent the precipitation of αAG98R
chaperone activity of Pro-substituted peptide (EDTA-induced ADH aggregation) [8]: no chaperone activity
chaperone activity of Pro-substituted peptide (EDTA-induced ADH aggregation) ([8]; listed as αA-mini-chaperone (pro)): Pro-substitution abolishes the chaperone activity of mini-chaperone
suppression of αAG98R aggregation, 43°C [9]: failed to suppress precipitation of the mutant protein

KFVIFLDVKHFSPEDLTVK [αA70-88, 19 amino acid peptide representing the chaperone site in αA-crystallin]
suppression of aggregation of denaturing ADH, citrate synthase, insulin and α-lactalbumin; chaperone-like function [10]: functions like a molecular chaperone

wild-type αA-crystallin: recombinant wild-type human αA-crystallin expressed in E. coli
temperature up to which / above which 218 nm ellipticity is stable / changes [11]: 40 °C
oligomeric size and molar mass change upon incubation [12]: oligomeric size and molar mass did not change
